Data from PubChem BioAssay AID190 (DTP/NCI, 2004).
Several values for one entry are separate records, joined by “and”; a condition that tells them apart may be missing. Equal values may be shown once. Inconclusive results and toxic doses are left out.

System: AKR/Lw mice, AKR lymphoma ip, median survival T/C
Test: NCI In Vivo Anticancer Drug Screen. Data for tumor model Lymphoma AKR (Transplanted) (intraperitoneal) in AKR/Lw mice
Conditions: endpoint: median survival time, higher = longer survival
Method: The antitumor activity of compounds was measured in mice bearing transplantable tumors. Survival or tumor size were measured and the results are expressed as the measurement made in the treated group (T) divided by the measurement made in the vehicle treated control group (C). The tumor model used in this assay is Lymphoma AKR (Transplanted) (intraperitoneal) in AKR/Lw mice

[1] = dose: 50.0 mg/kg/injection, schedule: Q01DX001 (ip), vehicle: saline
[2] = dose: 100.0 mg/kg/injection, schedule: Q01DX001 (ip), vehicle: saline
[3] = dose: 100.0 mg/kg/injection, schedule: Q01DX001 (ip), vehicle: Klucel (hydroxypropylcellulose) (HPC)
[4] = dose: 200.0 mg/kg/injection, schedule: Q01DX001 (ip), vehicle: Klucel (hydroxypropylcellulose) (HPC)
[5] = dose: 200.0 mg/kg/injection, schedule: Q01DX001 (ip), vehicle: saline
[6] = dose: 400.0 mg/kg/injection, schedule: Q01DX001 (ip), vehicle: saline

Structure (SMILES): Nc1ccn(C2OC(CO)C(O)C2O)c(=O)n1 (configuration not stated)
- T/C (dose: 0.18 mg/kg/injection, schedule: Q01DX009 (ip), vehicle: saline): 87 % of control
- T/C (dose: 0.25 mg/kg/injection, schedule: Q01DX015 (ip), vehicle: saline): 86 % of control
- T/C (dose: 0.37 mg/kg/injection, schedule: Q01DX009 (ip), vehicle: saline): 96 % of control
- T/C (dose: 0.5 mg/kg/injection, schedule: Q01DX015 (ip), vehicle: saline): 93 % of control
- T/C (dose: 0.75 mg/kg/injection, schedule: Q01DX009 (ip), vehicle: saline): 100 % of control
- T/C (dose: 1.0 mg/kg/injection, schedule: Q01DX015 (ip), vehicle: saline): 100 % of control
- T/C (dose: 3.12 mg/kg/injection, schedule: Q04DX003 (ip), vehicle: saline): 94 % of control
- T/C (dose: 5.0 mg/kg/injection, schedule: Q01DX009 (ip), vehicle: saline): 150 % of control
- T/C (dose: 5.0 mg/kg/injection, schedule: Q03HX032 (ip), vehicle: saline): 150 % of control
- T/C (dose: 10.0 mg/kg/injection, schedule: Q03HX032 (ip), vehicle: saline): 150 % of control
- T/C (dose: 12.5 mg/kg/injection, schedule: Q04DX003 (ip), vehicle: saline): 94 % of control
- T/C (dose: 15.0 mg/kg/injection, schedule: Q01DX009 (ip), vehicle: saline with Tween-80): 97 % of control
- T/C (dose: 15.0 mg/kg/injection, schedule: Q04DX003 (ip), vehicle: saline): 120 % of control
- T/C (dose: 18.75 mg/kg/injection, schedule: Q06HX004 (ip), vehicle: saline): 150 % of control
- T/C (dose: 18.75 mg/kg/injection, schedule: Q06HX016 (ip), vehicle: saline): 170 % of control
- T/C (dose: 18.8 mg/kg/injection, schedule: Q04DX003 (ip), vehicle: saline): 87 % of control
- T/C (dose: 19.0 mg/kg/injection, schedule: Q04DX003 (ip), vehicle: saline): 100 % of control
- T/C (dose: 25.0 mg/kg/injection, schedule: Q01DX001 (ip), vehicle: saline): 97 % of control
- T/C (dose: 25.0 mg/kg/injection, schedule: Q04DX003 (ip), vehicle: saline): 100 % of control
- T/C (dose: 40.0 mg/kg/injection, schedule: Q06HX012 (ip), vehicle: saline): 96 % of control
- T/C [1]: 94 % of control and 100 % of control
- T/C (dose: 50.0 mg/kg/injection, schedule: Q04DX003 (ip), vehicle: saline): 100 % of control
- T/C [2]: 100 % of control
- T/C (dose: 100.0 mg/kg/injection, schedule: Q01DX009 (ip), vehicle: saline): 87 % of control and 96 % of control
- T/C (dose: 150.0 mg/kg/injection, schedule: Q03HX016 (ip), vehicle: saline): 59 % of control
- T/C (dose: 400.0 mg/kg/injection, schedule: Q04DX003 (ip), vehicle: saline): 110 % of control

Structure (SMILES): c1cc2cc3c(cc2c2c1CC1c4cc5c(cc4CCN1C2)OCO5)OCO3 (configuration not stated)
- T/C [3]: 102 % of control
- T/C (dose: 100.0 mg/kg/injection, schedule: Q04DX003 (ip), vehicle: Klucel (hydroxypropylcellulose) (HPC)): 103 % of control
- T/C [4]: 97 % of control
- T/C (dose: 200.0 mg/kg/injection, schedule: Q04DX003 (ip), vehicle: Klucel (hydroxypropylcellulose) (HPC)): 96 % of control
- T/C (dose: 400.0 mg/kg/injection, schedule: Q04DX003 (ip), vehicle: Klucel (hydroxypropylcellulose) (HPC)): 92 % of control

Structure (SMILES): C1CC2C(CCCC23OCCO3)C2(C1)OCCO2 (configuration not stated)
- T/C [3]: 103 % of control
- T/C [2]: 106 % of control
- T/C [4]: 96 % of control
- T/C [5]: 106 % of control
- T/C (dose: 400.0 mg/kg/injection, schedule: Q01DX001 (ip), vehicle: Klucel (hydroxypropylcellulose) (HPC)): 93 % of control
- T/C [6]: 113 % of control

Structure (SMILES): O=[N+]([O-])O.[Th]
- T/C [2]: 113 % of control
- T/C [5]: 109 % of control
- T/C [6]: 104 % of control

Structure (SMILES): Nc1nc(=S)c2[nH]cnc2[nH]1
- T/C (dose: 0.12 mg/kg/injection, schedule: Q01DX009 (ip), vehicle: saline): 96 % of control
- T/C (dose: 0.25 mg/kg/injection, schedule: Q01DX009 (ip), vehicle: saline): 96 % of control
- T/C (dose: 0.5 mg/kg/injection, schedule: Q01DX009 (ip), vehicle: saline): 110 % of control
- T/C (dose: 0.5 mg/kg/injection, schedule: Q04DX003 (ip), vehicle: saline): 110 % of control
- T/C (dose: 1.0 mg/kg/injection, schedule: Q01DX009 (ip), vehicle: saline): 93 % of control and 100 % of control
- T/C (dose: 1.0 mg/kg/injection, schedule: Q04DX003 (ip), vehicle: saline): 120 % of control
- T/C (dose: 2.0 mg/kg/injection, schedule: Q01DX009 (ip), vehicle: saline): 87 % of control
- T/C (dose: 2.0 mg/kg/injection, schedule: Q04DX003 (ip), vehicle: saline): 116 % of control
- T/C (dose: 4.0 mg/kg/injection, schedule: Q04DX003 (ip), vehicle: saline): 120 % of control
- T/C (dose: 8.0 mg/kg/injection, schedule: Q04DX003 (ip), vehicle: saline): 87 % of control
- T/C (dose: 16.0 mg/kg/injection, schedule: Q04DX003 (ip), vehicle: saline): 118 % of control
- T/C (dose: 6.2 micrograms/kg/injection, schedule: Q03HX032 (ip), vehicle: saline): 98 % of control
- T/C (dose: 12.5 micrograms/kg/injection, schedule: Q03HX032 (ip), vehicle: saline): 98 % of control
- T/C (dose: 25.0 micrograms/kg/injection, schedule: Q03HX032 (ip), vehicle: saline): 101 % of control
- T/C (dose: 50.0 micrograms/kg/injection, schedule: Q03HX032 (ip), vehicle: saline): 114 % of control
- T/C (dose: 100.0 micrograms/kg/injection, schedule: Q03HX032 (ip), vehicle: saline): 118 % of control

Structure (SMILES): N[C@@H](Cc1ccc(N(CCCl)CCCl)cc1)C(=O)O
- T/C (dose: 0.25 mg/kg/injection, schedule: Q04DX008 (ip), vehicle: Klucel (hydroxypropylcellulose) (HPC)): 102 % of control
- T/C (dose: 0.5 mg/kg/injection, schedule: Q04DX008 (ip), vehicle: Klucel (hydroxypropylcellulose) (HPC)): 94 % of control
- T/C (dose: 0.75 mg/kg/injection, schedule: Q04DX008 (ip), vehicle: Klucel (hydroxypropylcellulose) (HPC)): 119 % of control
- T/C (dose: 1.0 mg/kg/injection, schedule: Q04DX004 (ip), vehicle: Klucel (hydroxypropylcellulose) (HPC)): 123 % of control
- T/C (dose: 1.0 mg/kg/injection, schedule: Q04DX004 (ip), vehicle: saline): 115 % of control
- T/C (dose: 1.0 mg/kg/injection, schedule: Q04DX008 (ip), vehicle: Klucel (hydroxypropylcellulose) (HPC)): 100 % of control
- T/C (dose: 2.0 mg/kg/injection, schedule: Q04DX004 (ip), vehicle: Klucel (hydroxypropylcellulose) (HPC)): 158 % of control
- T/C (dose: 2.0 mg/kg/injection, schedule: Q04DX004 (ip), vehicle: saline): 107 % of control
- T/C (dose: 2.0 mg/kg/injection, schedule: Q04DX008 (ip), vehicle: Klucel (hydroxypropylcellulose) (HPC)): 116 % of control
- T/C (dose: 2.5 mg/kg/injection, schedule: Q01DX001 (ip), vehicle: Klucel (hydroxypropylcellulose) (HPC)): 107 % of control
- T/C (dose: 3.9 mg/kg/injection, schedule: Q04DX004 (ip), vehicle: Klucel (hydroxypropylcellulose) (HPC)): 179 % of control
- T/C (dose: 3.9 mg/kg/injection, schedule: Q04DX004 (ip), vehicle: saline): 307 % of control
- T/C (dose: 6.0 mg/kg/injection, schedule: Q04DX004 (ip), vehicle: Klucel (hydroxypropylcellulose) (HPC)): 200 % of control
- T/C (dose: 6.0 mg/kg/injection, schedule: Q04DX004 (ip), vehicle: saline): 164 % of control
- T/C (dose: 7.7 mg/kg/injection, schedule: Q04DX008 (ip), vehicle: Klucel (hydroxypropylcellulose) (HPC)): 100 % of control
- T/C (dose: 9.0 mg/kg/injection, schedule: Q01DX001 (ip), vehicle: Klucel (hydroxypropylcellulose) (HPC)): 150 % of control
- T/C (dose: 12.0 mg/kg/injection, schedule: Q01DX001 (ip), vehicle: Klucel (hydroxypropylcellulose) (HPC)): 102 % of control
- T/C (dose: 16.0 mg/kg/injection, schedule: Q01DX001 (ip), vehicle: Klucel (hydroxypropylcellulose) (HPC)): 92 % of control

Structure (SMILES): C1CC[N+]2=C(C1)OCCC2
- T/C [1]: 94 % of control
- T/C [2]: 91 % of control
- T/C [5]: 97 % of control
